Key:
[1] = test system: CHOP/GADD153; assay: Western blot of CHOP/GADD153, hypoxic HT1080 cells; type: cell-based, human; details: 2.5 μM; hypoxia for 6-12 hours
Procedure: Cells (2×10^6) were cultured in 10-cm dishes, collected using a cell scraper at 4° C., and lysed by addition of 150 μl cell lysis buffer [50 mM Tris pH 7.4, 150 mM NaCl, 10% glycerol, 0.5% Triton X-100. 0.5% NP-40, 2 mM Na3VO4, 20 mM beta-glycerophosphate, 10 mM NaF, 1 mM DTT, 1 mM PMSF). Lysates were centrifuged for 5 min at 10,000×g, and proteins (˜40 μg) were resolved by SDS-PAGE followed by semi-dry transfer to nitrocellulose membranes. Membranes were blocked in TBS-5% milk supplemented with 0.1% Tween-20. The blots were then probed overnight with relevant antibodies, washed, and incubated for 2 hours with species-specific secondary antibodies conjugated to horseradish peroxidase. After washing in block solution, immunoreactive material was detected by enhanced chemiluminescence (SuperSignal West Dura Extended, Pierce, Inc., Rockville, Ill.).
A. Effect of irestatin 9389 on PERK and ATF6 pathways. […] Protein lysates were analyzed by Western blot analysis using antisera specific for ATF6 (top), CHOP/GADD153 (middle) or actin (bottom). […] Cells were harvested, counted, and allowed to grow under normal culture conditions for 11-12 days. […] D. Quantification of clonogenic survival assay. […] F. Quantification of TUNEL-positive cells. […] Cells were harvested at the indicated times and counted by hemocytometer. Values represent the mean calculated from triplicate experiments+/−SEM. […]

[2] = Blood chemistry, complete blood count and histopathology; type: in vivo, mice
Procedure: Complete blood counts (CBC's) and clinical chemistry panels were performed on blood obtained by cardiac puncture after euthanasia with CO2 Gross necropsies were performed, all major viscera were harvested, fixed in 10% buffered neutral formalin, routinely processed for paraffin embedding, and stained with hematoxylin and eosin (H&E). Sections were analyzed by a board-certified veterinary pathologist (DMB). […]

[3] = irestatin-treated nude mice, terminal cardiac blood draw, mean

Cc1csc(NC(=O)CSc2nc3c(c(C(F)(F)F)c2C#N)CCC3)n1 [Compound 9389]
expression of CHOP/GADD153 [1]: increased
tolerability (kidney, liver, bone marrow function) ([2]; 3-4 doses of 50 mg/kg every other day): well tolerated
fasting blood glucose levels versus vehicle ([2]; irestatin- and vehicle-treated animals): no significant difference in fasting blood glucose levels
ALT [2, 3]: 29.4 IU/L
AST [2, 3]: 117.775 IU/L
Anion Gap [2, 3]: 17.975 mM
Carbon Dioxide [2, 3]: 25.075 mM
Chloride [2, 3]: 116.75 mM
Cholesterol [2, 3]: 102 mg/dL
Glucose [2, 3]: 124.5 mg/dL
HCT [2, 3]: 47%
HGB [2, 3]: 14.625 gm/dL
Na/K Ratio [2, 3]: 20.3
Platelets [2, 3]: 805.5 K/uL
Potassium [2, 3]: 7.5175 mM
RBC [2, 3]: 10.375 M/uL
Sodium [2, 3]: 152.25 mM
Total Bilirubin [2, 3]: 0.3 mg/dL
WBC [2, 3]: 5.19 K/uL
histopathological analysis of all major organs ([2]; three doses, 50 mg/kg): no significant differences between the vehicle and irestatin treatment groups

Reference: patent US20130150399A1, “INHIBITORS OF THE UNFOLDED PROTEIN RESPONSE AND METHODS FOR THEIR USE” (The Board of Trustees of the Leland Stanford Junior …, priority 2006, published 2013)
